This assay addresses PAK1 (Homo sapiens, UniProt Q13153). Briefly: Z'-LYTE kinase assay, Ser/Thr […] peptide. The format is biochemical.

The structures appear in SMILES notation.

PAK1, sequence (Q13153 2-545): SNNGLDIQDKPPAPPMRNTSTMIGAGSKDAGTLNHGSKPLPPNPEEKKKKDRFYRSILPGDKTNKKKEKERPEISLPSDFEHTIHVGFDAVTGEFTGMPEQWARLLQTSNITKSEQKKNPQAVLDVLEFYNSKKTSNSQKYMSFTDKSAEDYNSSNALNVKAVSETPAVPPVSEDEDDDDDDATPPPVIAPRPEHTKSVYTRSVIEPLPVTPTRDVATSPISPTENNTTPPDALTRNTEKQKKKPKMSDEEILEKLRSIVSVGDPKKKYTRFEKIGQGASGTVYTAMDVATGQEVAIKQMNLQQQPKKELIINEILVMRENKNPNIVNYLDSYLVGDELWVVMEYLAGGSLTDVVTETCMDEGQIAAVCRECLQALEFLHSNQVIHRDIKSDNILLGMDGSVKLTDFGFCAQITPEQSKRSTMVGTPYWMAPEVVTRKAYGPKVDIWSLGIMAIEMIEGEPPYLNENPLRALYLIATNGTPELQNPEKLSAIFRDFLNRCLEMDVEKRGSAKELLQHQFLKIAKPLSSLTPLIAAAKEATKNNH

Usually IC50 stands for the point on the concentration scale where inhibition reaches its midpoint. High values mean weaker potency, low ones greater potency. Molecule `Cc1ccc2[nH]c(=O)c3cc(C(=O)NCCCN(C)Cc4ccccc4)sc3c2c1` [CP734, N-[3-(benzyl-methylamino)propyl]-8-methyl-4-oxo-5H-thieno[4,5-c]quinoline-2-carboxamide] displayed an IC50 of 15.3 µM.

For the origin of these results see paper PMC7161699 (Acta Pharmaceutica Sinica. B, 2019).
